# Several values for one entry are separate records, joined by “and”; a condition that tells them apart may be missing. Equal entries are not always repeated.
# Tests used:
# subjects with FSHD [1] = assay: FSHD health index (FSHD-HI); design: species or system human; conditions: in vivo
# Procedure: The FSHD health index questionnaire was administered at all visits except for Wk16. This is a FSHD-specific patient-reported measure of disease burden on activities of daily living, quality of life, and symptom prevalence and severity. It consists of a questionnaire with 116 items developed from qualitative interviews of patients followed by a national cross-sectional validation study. The measure consists of 14 subscales that measure a patient's perception of their ambulation and mobility, hand function, shoulder and arm function, emotional health, back/chest/abdomen strength, fatigue, pain, eating function, ability to do activities, communication ability, satisfaction in social situations, performance in social situations, body image and cognition. Scoring was performed centrally by the developer.
# subjects with FSHD [2] = assay: FSHD-TUG; design: species or system human; conditions: in vivo
# Procedure: (§1) TUG assessments were performed at all visits, except for Wk16. The TUG test is a simple test that is used to assess a subject's mobility and requires both static and dynamic balance. TUG is a validated instrument that measures the time that a person takes to rise from a chair, walk 3 meters, turn around, walk back to the chair, and sit down. Subjects used their regular footwear, and their customary walking aid (no walkers allowed). Patients were also timed in a modified test (FSHD TUG), where they started from a supine position, then sat up, completed the TUG, and lay down again.
# subjects with FSHD [3] = assay: Motor Function Measure Domain 1 (MFM); design: species or system human; conditions: in vivo
# Procedure: MFM domain 1 assessments were performed at all visits, except for those on Wk4 and Wk16. The MFM scale assesses the severity of motor deficit. Domain 1 of the MFM provides an assessment of functional impairment for standing and transfers.
# subjects with FSHD [4] = assay: Safety and tolerability in the RCT; format: in vivo, human; conditions: 15 mg BID up to 48 weeks
# Procedure: All safety analyses were performed using the safety analysis set based on as-treated treatment group. Safety analyses included summaries of TEAEs, clinical laboratory, vital signs and ECGs.
# subjects with FSHD [5] = assay: Timed Up and Go (TUG); format: in vivo, human; conditions: nonsignificant
# Procedure: as §1
# [6] = Muscle losmapimod concentrations in needle biopsies; format: in vivo; conditions: human, po, 15 mg BID, 15 mg orally BID
# Procedure: Muscle needle biopsies were performed using the Bergstrom needle or fine needle at D1 and Wk16, or Wk36 if the muscle biopsy could not be performed at Wk16. The choice of the muscle(s) to be biopsied was determined by the investigator, informed by MRI taken during screening. Only those STIR+ muscles with 10%≤MFF≤40% were eligible for biopsy. […] The bilateral vastus lateralis, vastus medialis, lateral gastrocnemius, medial gastrocnemius, and tibialis anterior were evaluated for eligibility by MRI using a central reader. The Wk16 or Wk36 muscle needle biopsies were performed in the same approximate location as the pretreatment (D1) muscle biopsy. At baseline, MRI fiducials were placed in order to identify the location for the needle biopsy. Coordinates in reference to the closest fiducial defined the location for the muscle biopsy. […] Approximately 15-40 mg of tissue was obtained at each biopsy and frozen in liquid nitrogen within 60 seconds after excision and stored at −80° C. (SciSafe Inc. Billerica, MA, USA) until analysis.
# Plasma and muscle losmapimod concentrations were measured by 2 validated bioanalytical high-performance liquid chromatography methods by PPD, USA (PPD 2019).
# subjects with FSHD [7] = assay: Hand-held dynamometry, maximum voluntary isometric contraction (MVICT); format: in vivo, human
# Procedure: Quantitative isometric dynamometry strength assessments were performed at all visits, except for Week 16. The MicroFET2 hand-held dynamometer was used to measure strength in the bilateral shoulders, elbow flexors and extensors, and ankle dorsiflexors. The Jamar Plus Digital Hand Dynamometer was used to measure bilateral grip strengths. Standard physical therapy techniques were used. Assessment of maximum voluntary isometric contraction (MVICT) was conducted with a hand-held dynamometer.
# subjects with FSHD1 = assay: Muscle ultrasound echogenicity, open-label study in FSHD1; format: in vivo, human
# Procedure: Fourteen subjects age 18 to 65 years with genetically confirmed FSHD1, clinical severity score of 2 to 4 (range 0-5) and MRI-eligible skeletal muscles for needle biopsy received open-label 15 mg twice daily losmapimod for 52 weeks with the primary objective of safety. Assessments included safety, MRI, muscle ultrasound (US), clinical outcomes, and PROs. US was performed on 7 muscles bilaterally using a standardized protocol. US echointensity was expressed as a z-score relative to matched healthy controls, with abnormal being defined as >2.
# subjects with FSHD [8] = assay: Patients' Global Impression of Change (PGIC); format: in vivo, human; conditions: Wk48
# Procedure: The Patients' Global Impression of Change (PGIC) Questionnaire was administered at every visit after baseline. Subjects were asked to rate their overall status since the start of the study on a scale from 1 (very much improved) to 7 (very much worse). The PGIC scale has been validated in several other indications and is recommended by the FDA for use as a meaningful measure of within-patient change.
# patients with FSHD1 = assay: Wearable sensor (Actimyo) physical activity, open label study; format: in vivo, human; conditions: over 1 year treatment; Mild or Upper group compared to Lower or Both group
# Procedure: This study evaluated feasibility to monitor daily activity and assess functional outcomes using wearable sensor devices in an open label study (OLS) of losmapimod in facioscapulohumeral muscular dystrophy (FSHD). 14 patients with FSHD1 received 15 mg losmapimod twice per day for a 52 week open label treatment period.
# Feasibility was measured by the reliability of the data over time and amount of background noise. The secondary objective was patients' compliance with using the wearable device.
# Upper limb and lower limb mobility were evaluated with “Actimyo” made by Sysnav. Actimyo quantifies movements of patients with neuromuscular disorders such as Duchenne muscular dystrophy (DMD), Spinal amyotrophy (SMA), Parkinson's and records activity based on magneto-inertial navigation. Raw data from the sensors are loaded on to the internal memory of the docking station/charging unit, and transmitted daily via an internet connection to a remote storage platform. Participants are provided with two watch like sensors to measure movements: On the ankle for lower extremity movements like gait; and On the wrist for upper extremity movements like mobility. Two kinds of movements were evaluated: Free living movement, which was recorded by wearing two devices all day (12-16 hours); and Imposed movements (2 times per day), which were a set of movements evaluated twice daily.
# [9] = open-label 15 mg twice daily, 52 weeks
compound,measurement,setting,value
"Cc1c(F)cc(C(=O)NC2CC2)cc1-c1ccc(C(=O)NCC(C)(C)C)cn1 [losmapimod, 6-(5-cyclopropylcarbamoyl-3-fluoro-2-methyl-phenyl)-N-(2,2-dimethylpropyl-)-nicotinamide]",FSHD-HI vs placebo,subjects with FSHD [1],no difference
same,FSHD-TUG vs placebo,subjects with FSHD [2],no difference
same,MFM total score vs placebo,subjects with FSHD [3],no difference
same,Safety and tolerability,subjects with FSHD [4],favorable safety and tolerability
same,Progression in TUG time,subjects with FSHD [5],0.16 s
same,TUG time difference vs placebo,subjects with FSHD [5],0.58 s
same,concentration at 16 weeks,"[6]; Wk16 biopsy, read-out: Concentrations in muscles at Wk16",61 ± 7.7 ng/g
same,concentration at 36 weeks,"[6]; Wk36 biopsy, read-out: Concentrations in muscles at Wk36",91.1 ± 10.7 ng/g
same,"MVICT strength change, ankle dorsiflexors, left ankle","subjects with FSHD [7]; Wk48, post-hoc",27.17%
same,"MVICT strength change, ankle dorsiflexors, right ankle","subjects with FSHD [7]; Wk48, post-hoc",12.72%
same,"MVICT strength change, shoulder abductors, non-dominant shoulder","subjects with FSHD [7]; Wk48, post-hoc",17.85%
same,"MVICT strength change, shoulder abductors, dominant shoulder","subjects with FSHD [7]; Wk48, post-hoc, ns",−3.79%
same,"MVICT difference vs placebo, non-dominant shoulder","subjects with FSHD [7]; Wk48, post-hoc, p<0.01",34.89
same,"MVICT difference vs placebo, right ankle","subjects with FSHD [7]; Wk48, post-hoc, p<0.05",38.39
same,"MVICT difference vs placebo, left ankle","subjects with FSHD [7]; Wk48, post-hoc, p=0.11",37.37
same,"Average or MVICT in other muscle groups (bilateral hand grip, elbow flexors or extensors)",subjects with FSHD [7]; vs placebo,No difference
same,Mean (SD) change from baseline in echogenicity of all muscles,subjects with FSHD1; [9],-0.17 (0.9) z-score
same,"Mean (SD) change from baseline in echogenicity, lower extremities",subjects with FSHD1; [9],−0.13 (1.0) z-score
same,"Mean (SD) change from baseline in echogenicity, upper extremity muscles",subjects with FSHD1; [9],−0.32 (0.9) z-score
same,Distribution of echogenicity z-scores of muscles at baseline versus the last visit,"subjects with FSHD1; z-score classes <2, 2-4, 4-6, >6",stayed the same or decreased
same,Patients reporting feeling very much worse on PGIC (6-7 in Likert scale),subjects with FSHD [8],No losmapimod treated patients
same,Patients reporting improvement on PGIC (1-3 in Likert scale),subjects with FSHD [8],27.5% and ~20%
same,PGIC difference compared to placebo,"subjects with FSHD [8]; 1-7 Likert scale, p=0.02",0.58
same,Physical function as measured by gait velocity,patients with FSHD1,tends to increase
